Patent US10111847B2, “Compounds and methods for modulating vascular injury” (The Regents of the University of California, priority 2012, dated 2018)

Key:
p65 subunit = test: Nuclear translocation of p65 subunit in sv-VSMCs (immunofluorescence); assay type: cell-based, human; conditions: 100 nm, 30 min; TNFα 10 ng/ml 2 hrs
Description: Immunofluorescence for p65 (RelA): 15000 VSMCs or 30000 ECs were seeded on a 8-well chamber slide. Cells received 30 min of Maresin-1 pretreatment, followed by TNF-α for 2 hr. Cells were fixed in 2% paraformaldehyde, followed by permeabilization with ice-cold acetone (10 min) and 1% Triton X-100 (20 min). Cells were incubated overnight in a humidified chamber with anti-p65 antibody (Santa Cruz Biotechnology Inc.) followed by Alexa-fluor 488 tagged secondary antibody (Life Technologies) and were visualized under a fluorescent microscope.
FIGS. 16A-16D. VSMCs were grown in chamber slides and treated with vehicle or 100 nm of 7S or 7R-Maresin-1 with/without 10 ng/ml pertussis toxin for 30 min, followed by TNFα (10 ng/ml) for 2 hrs. Cells were fixed and subsequently stained with anti-p65 (Santa Cruz Biotechnology) and secondary antibodies (Alexa-488). (A-D) Representative images of Ctrl (A), TNFα (B), 7R-Maresin-1+TNFα (C) and 7R-Maresin-1+pertussis toxin (10 ng/ml)+TNFα. (E) Mean fluorescence of nucleus and cytoplasm were quantified from all groups and the net result of the ratio of nucleus over cytoplasmic mean fluorescence is depicted in the bar graph, as a measure of relative p65 nuclear translocation. (N>=3). […]

rabbit femoral arteries = test: Rabbit femoral artery balloon injury, acute response at 3 days; assay type: in vivo, New Zealand White Rabbits
Description: All animal experiments are performed under a protocol approved by University of California San Francisco Animal Care Committee. New Zealand White Rabbits (NZWR, Western Oregon Rabbit Company, Philomath, Oreg.) weighing 3 to 5 kg and maintained on a normal chow diet are used in all experiments. Animals are anesthetized for surgical procedures with intramuscular injection of ketamine (25 mg/kg) and xylazine (5 mg/kg), and maintained with inhalation of isoflurane. The balloon injury model is made as described by Conte et al. “Efficient repopulation of denuded rabbit arteries with autologous genetically modified endothelial cells,” Circulation. 1994; 89:2161-2169. Rabbits undergo bilateral external iliac and femoral artery injury with 2F Fogarty balloon catheter (Applied Medical Resources Corp. Rancho Santa Margarita, Calif.). After balloon injury RvD2 (10 nM, Cayman chemical, Ann Arbor, Mich.) is infused to luminal area of the right femoral artery and control vehicle (normal saline with 0.1% ethanol) is infused to the left femoral artery, and then left undisturbed for 20 minutes. For evaluation of acute effects the rabbits are euthanized at 3 days after injury by intravenous overdose of sodium Nembutal. The femoral arteries are harvested and cryosection is made for immunohistochemistry, and total RNA from treated and control tissue is isolated. For evaluation of subacute responses regarding intimal hyperplasia the rabbits are euthanized at 28 days after injury and the tissue is perfusion-fixed in 10% formalin and processed as described by Conte et al. Arterioscler Thromb Vasc Biol. 2005; 25:2081-2087.
All the immunofluorescent staining is completed on 6-μm-thick frozen sections fixed by ice cold acetone for 10 minutes. Goat anti-mouse IgG conjugated with Alexa Fluor 488 or 568 (1:100, respectively, Invitrogen) is selected as secondary antibody. Anti-Ki67 (1:100, NCL-L-Ki67-MM1, Novocastra Laboratories, Newcastle upon Tyne, UK) is utilized for cell proliferation detection. […] The proportion of Ki67 is calculated by absolute positive cell number divided by DAPI positive nuclei. Leukocyte infiltration index is calculated as number of nuclei in CD45 positive area divided by total number of DAPI positive nuclei.
RvD1. […] Fluorescence was detected with TRITC filter allowing the detection of the DHE emission wavelength of 590-620 nm. The fluorescence lamp gain is standardized for all images and analyses. Fluorescence quantitation is performed using ImageJ analysis software (National Institute of Health, Bethesda, Md.). For VSMC the fluorescence intensity is determined for the DHE-stained control cells (no treatment control) from each experimental group and then individual treated cells from the same group are normalized to the corresponding value. […]

Structure (SMILES)	nuclear translocation of p65 subunit in human sv-VSMCs (p65 subunit)	Cell proliferation (Ki-67 staining index), % inhibition vs control (rabbit femoral arteries; 10 nM intraluminal 20 minutes, 3 days after injury, P<0.01) [%]	leukocyte infiltration (CD45 staining), % inhibition (rabbit femoral arteries; 10 nM intraluminal 20 minutes, 3 days after injury, P<0.05) [%]	TNF-α, MCP-1, and IL-1α expression in treated arteries vs vehicle (qPCR) (rabbit femoral arteries; 10 nM intraluminal, 3 days after injury)	injury-induced ROS production (DHE staining), % inhibition (rabbit femoral arteries; rabbit arteries 3 days after balloon injury, P<0.05) [%]
CC/C=C\C/C=C\C[C@H](O)\C=C/C=C/C=C/[C@@H](O)C/C=C\CCC(=O)O [7S-Maresin-1, 7S,14R-dihydroxydocosa-4Z,8E,10Z,12Z,16Z,19Z-hexaenoic acid]	Inhibit	–	–	–	–
CC/C=C\C[C@H](O)[C@H](O)/C=C/C=C/C=C\C=C\[C@@H](O)C/C=C\CCC(=O)O [RvD2, resolvin D2]	–	51	41	significant reductions	43
